Measured values published in patent US12570642B2, “GLP-IR modulating compounds” (Gilead Sciences, Inc., priority 2021, dated 2026).

Molecular target: GLP-1R (Homo sapiens, UniProt P43220)
Assay: GLP-1R Activation - cAMP Assay
Assay type: cell-based
Conditions: cAMP increase in CHO cells stably expressing GLP-1R; each compound run on one of the two cAMP assays (Assay 1 or Assay 2, not specified)
Summary of the method: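 cAMP rise read by HTRF after 30 min agonist exposure (10-point titration, 37 °C) in HBSS/20 mM Hepes/0.1% BSA, following 1 h pre-incubation. Cells: stable GLP-1R CHO line, 1,000/well, seeded overnight. Sigmoidal fit of response vs log concentration gives EC50.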

Chain of GLP-1R (P43220 24-463): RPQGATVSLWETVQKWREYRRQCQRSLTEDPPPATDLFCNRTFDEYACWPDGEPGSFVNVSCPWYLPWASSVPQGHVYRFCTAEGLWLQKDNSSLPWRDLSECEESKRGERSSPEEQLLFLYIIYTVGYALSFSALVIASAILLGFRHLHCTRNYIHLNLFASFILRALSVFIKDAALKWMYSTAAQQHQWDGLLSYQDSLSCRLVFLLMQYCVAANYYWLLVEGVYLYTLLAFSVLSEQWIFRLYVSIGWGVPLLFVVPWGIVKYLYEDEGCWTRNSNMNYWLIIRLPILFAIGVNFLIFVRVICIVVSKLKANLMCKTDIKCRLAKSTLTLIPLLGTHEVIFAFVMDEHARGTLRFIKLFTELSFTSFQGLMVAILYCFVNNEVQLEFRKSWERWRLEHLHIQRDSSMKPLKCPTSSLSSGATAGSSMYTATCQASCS

SMILES	EC50
COCCn1c(Cc2cc(F)c(-c3cccc(OCc4ccc5c(c4)CN(C(=O)OC)C5)n3)cc2Cl)nc2c(F)cc(C(=O)O)cc21 [Example 258, 2-(2-chloro-5-fluoro-4-(6-((2-(methoxycarbonyl)isoindolin-5-yl)methoxy)pyridin-2-yl)benzyl)-4-fluoro-1-(2-methoxyethyl)-1H-benzo[d]imidazole-6-carboxylic acid]	0.24 nM
COC(=O)N1Cc2ccc(COc3cccc(-c4cc(F)c(Cc5nc6c(F)cc(C(=O)O)cc6n5[C@@H]5COCC5(C)C)cc4F)n3)cc2C1 [Example 263, (S)-2-(2,5-difluoro-4-(6-((2-(methoxycarbonyl)isoindolin-5-yl)methoxy)pyridin-2-yl)benzyl)-1-(4,4-dimethyltetrahydrofuran-3-yl)-4-fluoro-1H-benzo[d]imidazole-6-carboxylic acid]	0.709 nM
CC1(C)COCC1n1c(Cc2cc(F)c(-c3cccc(OCc4ncc(C(F)(F)F)cc4F)n3)cc2F)nc2c(F)cc(C(=O)O)cc21 (stereo not drawn) [Example 264, 2-(2,5-difluoro-4-(6-((3-fluoro-5-(trifluoromethyl)pyridin-2-yl)methoxy)pyridin-2-yl)benzyl)-1-(4,4-dimethyltetrahydrofuran-3-yl)-4-fluoro-1H-benzo[d]imidazole-6-carboxylic acid]	0.155 nM
Cc1cc(Cc2nc3c(F)cc(C(=O)O)cc3n2[C@@H]2COCC2(C)C)c(F)cc1-c1ccnc(OCc2ccc(C#N)cc2F)n1 [Example 265, (S)-2-(4-(2-((4-cyano-2-fluorobenzyl)oxy)pyrimidin-4-yl)-2-fluoro-5-methylbenzyl)-1-(4,4-dimethyltetrahydrofuran-3-yl)-4-fluoro-1H-benzo[d]imidazole-6-carboxylic acid]	0.171 nM
N#Cc1ccc(COc2cccc(-c3cc(F)c(Cc4nc5ccc(C(=O)O)cc5n4CC4(C5CC5)CCCO4)cc3F)n2)c(F)c1 (stereo not drawn) [Example 273, 2-(4-(6-((4-cyano-2-fluorobenzyl)oxy)pyridin-2-yl)-2,5-difluorobenzyl)-1-((2-cyclopropyltetrahydrofuran-2-yl)methyl)-1H-benzo[d]imidazole-6-carboxylic acid]	0.942 nM
N#Cc1ccc(COc2cccc(-c3cc(F)c(Cc4nc5ccc(C(=O)O)cc5n4CC4CC5(CC5)CO4)cc3F)n2)c(F)c1 (stereo not drawn) [Example 274, 1-(5-oxaspiro[2.4]heptan-6-ylmethyl)-2-(4-(6-((4-cyano-2-fluorobenzyl)oxy)pyridin-2-yl)-2,5-difluorobenzyl)-1H-benzo[d]imidazole-6-carboxylic acid]	0.643 nM
CC1(C)COC[C@H]1n1c(Cc2ccc(-c3ccc(F)c(OCc4ccc(C#N)cc4F)n3)cc2)nc2ccc(C(=O)O)cc21 [Example 277, (S)-2-(4-(6-((4-cyano-2-fluorobenzyl)oxy)-5-fluoropyridin-2-yl)benzyl)-1-(4,4-dimethyltetrahydrofuran-3-yl)-1H-benzo[d]imidazole-6-carboxylic acid]	0.34 nM
COCCn1c(Cc2c(F)cc(-c3cccc(OCc4ccc(C#N)cc4)n3)c(F)c2F)nc2ccc(C(=O)O)cc21 [Example 281, 2-(4-(6-((4-cyanobenzyl)oxy)pyridin-2-yl)-2,3,6-trifluorobenzyl)-1-(2-methoxyethyl)-1H-benzo[d]imidazole-6-carboxylic acid]	0.655 nM
CC1(C)COC[C@H]1n1c(Cc2c(F)cc(-c3ccc(F)c(OCc4ccc(Cl)cc4)n3)c(F)c2F)nc2ccc(C(=O)O)cc21 [Example 282, (S)-2-(4-(6-((4-chlorobenzyl)oxy)-5-fluoropyridin-2-yl)-2,3,6-trifluorobenzyl)-1-(4,4-dimethyltetrahydrofuran-3-yl)-1H-benzo[d]imidazole-6-carboxylic acid]	0.192 nM
CC1(C)COC[C@H]1n1c(Cc2c(F)cc(-c3ccc(F)c(OCc4ccc(C#N)cc4)n3)c(F)c2F)nc2ccc(C(=O)O)cc21 [Example 283, (S)-2-(4-(6-((4-cyanobenzyl)oxy)-5-fluoropyridin-2-yl)-2,3,6-trifluorobenzyl)-1-(4,4-dimethyltetrahydrofuran-3-yl)-1H-benzo[d]imidazole-6-carboxylic acid]	0.477 nM
CC1(C)COC[C@H]1n1c(Cc2cc(F)c(-c3cccc(OCc4ncc(Cl)cc4F)n3)cc2F)nc2c(F)cc(C(=O)O)cc21 [Example 287, (S)-2-(4-(6-((5-chloro-3-fluoropyridin-2-yl)methoxy)pyridin-2-yl)-2,5-difluorobenzyl)-1-(4,4-dimethyltetrahydrofuran-3-yl)-4-fluoro-1H-benzo[d]imidazole-6-carboxylic acid]	0.051 nM
COCCn1c(Cc2cc(F)c(-c3cccc(OCc4cnc(Cl)cc4OC)n3)cc2F)nc2c(F)cc(C(=O)O)cc21 [Example 291, 2-(4-(6-((6-chloro-4-methoxypyridin-3-yl)methoxy)pyridin-2-yl)-2,5-difluorobenzyl)-4-fluoro-1-(2-methoxyethyl)-1H-benzo[d]imidazole-6-carboxylic acid]	0.076 nM
COCCn1c(Cc2c(F)cc(-c3cccc(OCc4ccc(C#N)cc4F)n3)c(F)c2F)nc2c(F)cc(C(=O)O)cc21 [Example 292, 2-(4-(6-((4-cyano-2-fluorobenzyl)oxy)pyridin-2-yl)-2,3,6-trifluorobenzyl)-4-fluoro-1-(2-methoxyethyl)-1H-benzo[d]imidazole-6-carboxylic acid]	0.133 nM

Next, values leading:

EC50	SMILES
0.064 nM	CC1(C)COC[C@H]1n1c(Cc2cc(F)c(-c3cccc(OCc4ccc(C#N)cc4F)n3)cc2Cl)nc2ccc(C(=O)O)cc21 [Example 257, (S)-2-(2-chloro-4-(6-((4-cyano-2-fluorobenzyl)oxy)pyridin-2-yl)-5-fluorobenzyl)-1-(4,4-dimethyltetrahydrofuran-3-yl)-1H-benzo[d]imidazole-6-carboxylic acid]
0.175 nM	N#Cc1ccc(COc2cccc(-c3cc(F)c(Cc4nc5ccc(C(=O)O)cc5n4C4COCC45CC5)cc3F)n2)c(F)c1 (stereo not drawn) [Example 268, 2-(4-(6-((4-cyano-2-fluorobenzyl)oxy)pyridin-2-yl)-2,5-difluorobenzyl)-1-(5-oxaspiro[2.4]heptan-7-yl)-1H-benzo[d]imidazole-6-carboxylic acid]
0.085 nM	Cc1cc(Cc2nc3ccc(C(=O)O)cc3n2[C@@H]2COCC2(C)C)c(F)cc1-c1cccc(OCc2ccc(C#N)cc2F)n1 [Example 278, (S)-2-(4-(6-((4-cyano-2-fluorobenzyl)oxy)pyridin-2-yl)-2-fluoro-5-methylbenzyl)-1-(4,4-dimethyltetrahydrofuran-3-yl)-1H-benzo[d]imidazole-6-carboxylic acid]
0.195 nM	Cc1cc(Cc2nc3ccc(C(=O)O)cc3n2[C@@H]2COCC2(C)C)c(F)cc1-c1ccc(F)c(OCc2ccc(C#N)cc2F)n1 [Example 279, (S)-2-(4-(6-((4-cyano-2-fluorobenzyl)oxy)-5-fluoropyridin-2-yl)-2-fluoro-5-methylbenzyl)-1-(4,4-dimethyltetrahydrofuran-3-yl)-1H-benzo[d]imidazole-6-carboxylic acid]
0.165 nM	Cc1cc(Cc2nc3ccc(C(=O)O)cc3n2[C@@H]2COCC2(C)C)c(F)cc1-c1cccc(OCc2ccc(Cl)cc2F)n1 [Example 280, (S)-2-(4-(6-((4-chloro-2-fluorobenzyl)oxy)pyridin-2-yl)-2-fluoro-5-methylbenzyl)-1-(4,4-dimethyltetrahydrofuran-3-yl)-1H-benzo[d]imidazole-6-carboxylic acid]
0.135 nM	Cc1cc(Cc2nc3ccc(C(=O)O)cc3n2[C@@H]2COCC2(C)C)c(F)cc1-c1ccnc(OCc2ccc(Cl)cc2F)n1 [Example 284, (S)-2-(4-(2-((4-chloro-2-fluorobenzyl)oxy)pyrimidin-4-yl)-2-fluoro-5-methylbenzyl)-1-(4,4-dimethyltetrahydrofuran-3-yl)-1H-benzo[d]imidazole-6-carboxylic acid]
0.096 nM	CC1(C)COC[C@H]1n1c(Cc2cc(F)c(-c3ccnc(OCc4ccc(C(F)(F)F)cc4F)n3)cc2F)nc2ccc(C(=O)O)cc21 [Example 285, (S)-2-(2,5-difluoro-4-(2-((2-fluoro-4-(trifluoromethyl)benzyl)oxy)pyrimidin-4-yl)benzyl)-1-(4,4-dimethyltetrahydrofuran-3-yl)-1H-benzo[d]imidazole-6-carboxylic acid]
0.099 nM	Cc1ccc(COc2cccc(-c3cc(F)c(Cc4nc5ccc(C(=O)O)cc5n4C4COCC4(C)C)cc3F)n2)c(Cl)n1 (stereo not drawn) [Example 286, 2-(4-(6-((2-chloro-6-methylpyridin-3-yl)methoxy)pyridin-2-yl)-2,5-difluorobenzyl)-1-(4,4-dimethyltetrahydrofuran-3-yl)-1H-benzo[d]imidazole-6-carboxylic acid]
0.041 nM	COc1cc(Cl)ncc1COc1cccc(-c2cc(F)c(Cc3nc4c(F)cc(C(=O)O)cc4n3[C@@H]3COCC3(C)C)cc2F)n1 [Example 288, (S)-2-(4-(6-((6-chloro-4-methoxypyridin-3-yl)methoxy)pyridin-2-yl)-2,5-difluorobenzyl)-1-(4,4-dimethyltetrahydrofuran-3-yl)-4-fluoro-1H-benzo[d]imidazole-6-carboxylic acid]
0.04 nM	CC1(C)COCC1n1c(Cc2c(F)cc(-c3cccc(OCc4ccc(C#N)cc4F)n3)c(F)c2F)nc2ccc(C(=O)O)cc21 (stereo not drawn) [Example 293, 2-(4-(6-((4-cyano-2-fluorobenzyl)oxy)pyridin-2-yl)-2,3,6-trifluorobenzyl)-1-(4,4-dimethyltetrahydrofuran-3-yl)-1H-benzo[d]imidazole-6-carboxylic acid]
0.021 nM	COc1cc(Cl)ncc1COc1cccc(-c2cc(F)c(Cc3nc4ccc(C(=O)O)cc4n3C3COCC3(C)C)cc2F)n1 (stereo not drawn) [Example 294, 2-(4-(6-((6-chloro-4-methoxypyridin-3-yl)methoxy)pyridin-2-yl)-2,5-difluorobenzyl)-1-(4,4-dimethyltetrahydrofuran-3-yl)-1H-benzo[d]imidazole-6-carboxylic acid]
